In US20100267561A1, “HERBICIDAL PYRIDAZINONE DERIVATIVES” (priority 2007, published 2010):

Tests used:
Assay type in all cases: in vivo
[1] = system: ducksalad (Heteranthera limosa); experiment: Test B flooded paddy test plant response
How it was run: (§1)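 Paddy-water application to 2-leaf plants in pots held under 3 cm of flooding; response is a 0–100 visual control rating against controls after 13 to 15 days, and a dash marks a missing result.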

rice (Oryza sativa) = experiment: Test B flooded paddy test plant response
How it was run: as §1

[2] = system: large crabgrass (Digitaria sanguinalis); experiment: Test B pre-/postemergence plant response
Description: (§2) Seeds of plant species selected from blackgrass (Alopecurus myosuroides), downy bromegrass (Bromus tectorum), green foxtail (Setaria viridis), Italian ryegrass (Lolium multiflorum), wheat (Triticum aestivum), wild oat (Avena fatua), catchweed bedstraw (Galium aparine), bermudagrass (Cynodon dactylon), surinam grass (Brachiaria decumbens), cocklebur (Xanthium strumarium), corn (Zea mays), large crabgrass (Digitaria sanguinalis), woolly cupgrass (Eriochloa villosa), giant foxtail (Setaria faberii), goosegrass (Eleusine indica), johnsongrass (Sorghum halepense), kochia (Kochia scoparia), lambsquarters (Chenopodium album), morningglory (Ipomoea coccinea), eastern black (E.B.) nightshade (Solanum ptycanthum), yellow nutsedge (Cyperus esculentus), pigweed (Amaranthus retroflexus), common ragweed (Ambrosia elation), Russian thistle (Salsola iberica), soybean (Glycine max), common (oilseed) sunflower (Helianthus annuus), and velvetleaf (Abutilon theophrasti) were planted and treated preemergence with test chemicals formulated in a non-phytotoxic solvent mixture which included a surfactant.
(§3) At the same time, plants selected from these crop and weed species and also winter barley (Hordeum vulgare), canarygrass (Phalaris minor), chickweed (Stellaria media) and windgrass (Apera spica-venti) were treated with postemergence applications of some of the test chemicals formulated in the same manner. Plants ranged in height from 2 to 18 cm (1- to 4-leaf stage) for postemergence treatments.
(§4) Plant species in the flooded paddy test consisted of rice (Oryza sativa), umbrella sedge (Cyperus difformis), ducksalad (Heteranthera limosa) and barnyardgrass (Echinochloa crus-galli) grown to the 2-leaf stage for testing. At time of treatment, test pots were flooded to 3 cm above the soil surface, treated by application of test compounds directly to the paddy water, and then maintained at that water depth for the duration of the test. Treated plants and controls were maintained in a greenhouse for 13 to 15 days, after which time all species were compared to controls and visually evaluated. Plant response ratings, summarized in Table B, are based on a scale of 0 to 100 where 0 is no effect and 100 is complete control. A dash (-) response means no test result.

[3] = system: common (oilseed) sunflower (Helianthus annuus); experiment: Test B pre-/postemergence plant response; details: Preemergence
Description: as §2, §3, §4

[4] = system: giant foxtail (Setaria faberii); experiment: Test B pre-/postemergence plant response
Description: as §2, §3, §4

[5] = system: common ragweed (Ambrosia elation); experiment: Test B pre-/postemergence plant response
Description: as §2, §3, §4

[6] = system: johnsongrass (Sorghum halepense); experiment: Test B pre-/postemergence plant response
Description: as §2, §3, §4

wild oat (Avena fatua) = experiment: Test B pre-/postemergence plant response
Description: as §2, §3, §4

[7] = system: velvetleaf (Abutilon theophrasti); experiment: Test B pre-/postemergence plant response
Description: as §2, §3, §4

[8] = system: goosegrass (Eleusine indica); experiment: Test B pre-/postemergence plant response
Description: as §2, §3, §4

[9] = system: woolly cupgrass (Eriochloa villosa); experiment: Test B pre-/postemergence plant response
Description: as §2, §3, §4

[10] = system: pigweed (Amaranthus retroflexus); experiment: Test B pre-/postemergence plant response
Description: as §2, §3, §4

[11] = system: eastern black (E.B.) nightshade (Solanum ptycanthum); experiment: Test B pre-/postemergence plant response; details: Preemergence
Description: as §2, §3, §4

[12] = system: green foxtail (Setaria viridis); experiment: Test B pre-/postemergence plant response
Description: as §2, §3, §4

[13] = Flood (flooded paddy test), 62 g ai/ha, scale 0 to 100, 0 no effect, 100 complete control
[14] = Flood (flooded paddy test), 125 g ai/ha, scale 0 to 100, 0 no effect, 100 complete control
[15] = Flood (flooded paddy test), 250 g ai/ha, scale 0 to 100, 0 no effect, 100 complete control
[16] = Flood, 31 g ai/ha, scale 0 to 100
[17] = Postemergence, 31 g ai/ha, scale 0 to 100, 0 no effect, 100 complete control
[18] = Postemergence, 62 g ai/ha, scale 0 to 100
[19] = Postemergence, 125 g ai/ha, scale 0 to 100
[20] = Postemergence, 250 g ai/ha, scale 0 to 100
[21] = Preemergence, 31 g ai/ha, 0 to 100 scale, 0 no effect, 100 complete control
[22] = Preemergence, 62 g ai/ha, scale 0 to 100
[23] = Preemergence, 125 g ai/ha, scale 0 to 100
[24] = Preemergence, 250 g ai/ha, scale 0 to 100
[25] = 31 g ai/ha, 0 to 100 scale, 0 no effect, 100 complete control

**Q.** Which “Plant response rating, Ducksalad” value [1, 13] does the source give for “4-[3-(4-chlorophenyl)-5-methyl-1H-pyrazol-3-yl]-5-hydroxy-2-methyl-3(2H)-pyridazinone [Compound 3]” here?
**A.** 0

**Q.** And the “Plant response rating, Ducksalad” value [1, 14]?
**A.** 0

**Q.** And the “Plant response rating, Ducksalad” value [1, 15]?
**A.** 40

**Q.** What about the “Plant response rating, Ducksalad” value [1, 16] of the same substance?
**A.** 0

**Q.** And the “Plant response rating, Rice” value (rice (Oryza sativa); [13])?
**A.** 60

**Q.** And the “Plant response rating, Rice” value (rice (Oryza sativa); [14])?
**A.** 75

**Q.** And the “Plant response rating, Rice” value (rice (Oryza sativa); [15])?
**A.** 80

**Q.** And the “Plant response rating, Rice” value (rice (Oryza sativa); [16])?
**A.** 20

**Q.** What about the “Plant response rating, Crabgrass, Large” value [2, 17] of the same substance?
**A.** 100

**Q.** What about the “Plant response rating, Crabgrass, Large” value [2, 18] of the same substance?
**A.** 100

**Q.** What about the “Plant response rating, Crabgrass, Large” value [2, 19] of the same substance?
**A.** 100

**Q.** And the “Plant response rating, Crabgrass, Large” value [2, 20]?
**A.** 100

**Q.** What about the “Plant response rating, Crabgrass, Large” value [2, 21] of the same substance?
**A.** 90

**Q.** And the “Plant response rating, Crabgrass, Large” value [2, 22]?
**A.** 90

**Q.** What about the “Plant response rating, Crabgrass, Large” value [2, 23] of the same substance?
**A.** 100

**Q.** What about the “Plant response rating, Crabgrass, Large” value [2, 24] of the same substance?
**A.** 100

**Q.** And the “Plant response rating, Sunflower” value [3, 25]?
**A.** 30

**Q.** And the “Plant response rating, Sunflower” value ([3]; 62 g ai/ha, scale 0 to 100)?
**A.** 40

**Q.** And the “Plant response rating, Foxtail, Giant” value [4, 17]?
**A.** 100

**Q.** And the “Plant response rating, Foxtail, Giant” value [4, 18]?
**A.** 100

**Q.** What about the “Plant response rating, Foxtail, Giant” value [4, 19] of the same substance?
**A.** 100

**Q.** What about the “Plant response rating, Foxtail, Giant” value [4, 20] of the same substance?
**A.** 100

**Q.** What about the “Plant response rating, Foxtail, Giant” value [4, 21] of the same substance?
**A.** 98

**Q.** And the “Plant response rating, Foxtail, Giant” value [4, 22]?
**A.** 98

**Q.** What about the “Plant response rating, Foxtail, Giant” value [4, 23] of the same substance?
**A.** 100

**Q.** What about the “Plant response rating, Foxtail, Giant” value [4, 24] of the same substance?
**A.** 100

**Q.** What about the “Plant response rating, Ragweed” value [5, 18] of the same substance?
**A.** 0

**Q.** And the “Plant response rating, Ragweed” value [5, 19]?
**A.** 0

**Q.** What about the “Plant response rating, Ragweed” value [5, 20] of the same substance?
**A.** 50

**Q.** And the “Plant response rating, Ragweed” value [5, 21]?
**A.** 0

**Q.** What about the “Plant response rating, Ragweed” value [5, 23] of the same substance?
**A.** 0

**Q.** What about the “Plant response rating, Ragweed” value [5, 24] of the same substance?
**A.** 0

**Q.** What about the “Plant response rating, Johnsongrass” value [6, 17] of the same substance?
**A.** 0

**Q.** And the “Plant response rating, Johnsongrass” value [6, 18]?
**A.** 80

**Q.** What about the “Plant response rating, Johnsongrass” value [6, 21] of the same substance?
**A.** 80

**Q.** And the “Plant response rating, Johnsongrass” value [6, 22]?
**A.** 95

**Q.** What about the “Plant response rating, Johnsongrass” value [6, 23] of the same substance?
**A.** 100

**Q.** And the “Plant response rating, Johnsongrass” value [6, 24]?
**A.** 100

**Q.** And the “Plant response rating, Oat, Wild” value (wild oat (Avena fatua); [17])?
**A.** 90

**Q.** And the “Plant response rating, Oat, Wild” value (wild oat (Avena fatua); [18])?
**A.** 95

**Q.** What about the “Plant response rating, Oat, Wild” value (wild oat (Avena fatua); [19]) of the same substance?
**A.** 100

**Q.** And the “Plant response rating, Oat, Wild” value (wild oat (Avena fatua); [20])?
**A.** 100

**Q.** What about the “Plant response rating, Oat, Wild” value (wild oat (Avena fatua); [21]) of the same substance?
**A.** 60

**Q.** What about the “Plant response rating, Oat, Wild” value (wild oat (Avena fatua); [22]) of the same substance?
**A.** 70

**Q.** What about the “Plant response rating, Oat, Wild” value (wild oat (Avena fatua); [23]) of the same substance?
**A.** 80

**Q.** What about the “Plant response rating, Oat, Wild” value (wild oat (Avena fatua); [24]) of the same substance?
**A.** 95

**Q.** What about the “Plant response rating, Velvetleaf” value [7, 17] of the same substance?
**A.** 0

**Q.** And the “Plant response rating, Velvetleaf” value [7, 18]?
**A.** 0

**Q.** And the “Plant response rating, Velvetleaf” value [7, 19]?
**A.** 0

**Q.** And the “Plant response rating, Velvetleaf” value [7, 20]?
**A.** 0

**Q.** And the “Plant response rating, Velvetleaf” value [7, 21]?
**A.** 0

**Q.** What about the “Plant response rating, Velvetleaf” value [7, 22] of the same substance?
**A.** 0

**Q.** And the “Plant response rating, Velvetleaf” value [7, 23]?
**A.** 0

**Q.** And the “Plant response rating, Velvetleaf” value [7, 24]?
**A.** 20

**Q.** What about the “Plant response rating, Goosegrass” value [8, 17] of the same substance?
**A.** 95

**Q.** And the “Plant response rating, Goosegrass” value [8, 18]?
**A.** 95

**Q.** What about the “Plant response rating, Goosegrass” value [8, 19] of the same substance?
**A.** 100

**Q.** And the “Plant response rating, Goosegrass” value [8, 20]?
**A.** 100

**Q.** And the “Plant response rating, Goosegrass” value [8, 21]?
**A.** 80

**Q.** And the “Plant response rating, Goosegrass” value [8, 22]?
**A.** 85

**Q.** What about the “Plant response rating, Goosegrass” value [8, 23] of the same substance?
**A.** 85

**Q.** And the “Plant response rating, Goosegrass” value [8, 24]?
**A.** 100

**Q.** What about the “Plant response rating, Cupgrass, Woolly” value [9, 17] of the same substance?
**A.** 100

**Q.** And the “Plant response rating, Cupgrass, Woolly” value [9, 18]?
**A.** 100

**Q.** And the “Plant response rating, Cupgrass, Woolly” value [9, 19]?
**A.** 100

**Q.** And the “Plant response rating, Cupgrass, Woolly” value [9, 20]?
**A.** 100

**Q.** What about the “Plant response rating, Cupgrass, Woolly” value [9, 21] of the same substance?
**A.** 50

**Q.** What about the “Plant response rating, Cupgrass, Woolly” value [9, 22] of the same substance?
**A.** 50

**Q.** And the “Plant response rating, Cupgrass, Woolly” value [9, 23]?
**A.** 90

**Q.** And the “Plant response rating, Cupgrass, Woolly” value [9, 24]?
**A.** 100

**Q.** What about the “Plant response rating, Pigweed” value [10, 17] of the same substance?
**A.** 0

**Q.** What about the “Plant response rating, Pigweed” value [10, 18] of the same substance?
**A.** 0

**Q.** What about the “Plant response rating, Pigweed” value [10, 19] of the same substance?
**A.** 10

**Q.** And the “Plant response rating, Pigweed” value [10, 20]?
**A.** 25

**Q.** And the “Plant response rating, Pigweed” value [10, 21]?
**A.** 0

**Q.** What about the “Plant response rating, Pigweed” value [10, 22] of the same substance?
**A.** 90

**Q.** What about the “Plant response rating, Pigweed” value [10, 23] of the same substance?
**A.** 90

**Q.** What about the “Plant response rating, Pigweed” value [10, 24] of the same substance?
**A.** 90

**Q.** And the “Plant response rating, Nightshade, E. B.” value [11, 25]?
**A.** 90

**Q.** What about the “Plant response rating, Nightshade, E. B.” value ([11]; 62 g ai/ha, scale 0 to 100) of the same substance?
**A.** 100

**Q.** What about the “Plant response rating, Nightshade, E. B.” value ([11]; 125 g ai/ha, scale 0 to 100) of the same substance?
**A.** 100

**Q.** What about the “Plant response rating, Nightshade, E. B.” value ([11]; 250 g ai/ha, scale 0 to 100) of the same substance?
**A.** 100

**Q.** And the “Plant response rating, Foxtail, Green” value [12, 17]?
**A.** 90

**Q.** And the “Plant response rating, Foxtail, Green” value [12, 18]?
**A.** 100

**Q.** What about the “Plant response rating, Foxtail, Green” value [12, 19] of the same substance?
**A.** 100

**Q.** And the “Plant response rating, Foxtail, Green” value [12, 20]?
**A.** 100

**Q.** And the “Plant response rating, Foxtail, Green” value [12, 21]?
**A.** 100

**Q.** What about the “Plant response rating, Foxtail, Green” value [12, 22] of the same substance?
**A.** 100

**Q.** What about the “Plant response rating, Foxtail, Green” value [12, 23] of the same substance?
**A.** 100

**Q.** And the “Plant response rating, Foxtail, Green” value [12, 24]?
**A.** 100
